Laboratory results published in patent US4088772A, “Methanodibenzocycloheptapyrroles” (E. I. Du Pont de Nemours and Company, priority 1975, dated 1978).
Like-named read-outs stand apart in the source and are kept apart here.

Key:
[1] = in vivo; settings: mouse, in vivo, po
Procedure: (§1) Groups of five Carworth CF1 S female mice, 16-20 g each, were fasted 16-22 hours before use. The mice were put in opaque plastic "shoe-box" cages 15-30 min. before injection, and then treated orally with 4, 12, 36, 108 and 324 mg/kg of the compound to be tested as a 13 mg/ml solution in 1% aqueous distilled water solution of methylcellulose (Methocel®). Each dose was given in a standard volume of 0.45 ml. Observations were made at 0.5, 2 and 24 hours after dosing. ED50 values were calculated for each parameter including death (LD50). The ED50 and LD50 values are the doses at which 50% of the naimals would be expected to respond.
(§2) The mouse is placed on a stainless steel wire mesh screen (8 × 12 inches, 3 mesh per inch, 1/4 inch mesh openings) "shoe-box" lid (1 inch high) and is observed for normal activities, such as nose movements, head movements with apparent visual examination of the area, and/or walking around on the screen. Absence of or marked depression of these activities for 5 seconds constitutes loss of exploratory activity.
(§3) The mouse is picked up by the tail and placed on the screen with its head facing the observer. Bilateral eyelid closure of 50% or more two seconds after placement is considered ptosis.
(§4) The mouse is placed with its front paws on the edge of a stainless steel "shoe-box" cover, 1 inch high, covered with adhesive tape. Failure to remove both paws from the cover's edge within 5 seconds constitutes catatonia.
(§5) The observer gently strokes the abdominal musculature of the mouse with thumb and forefinger. Flaccidity (or rarely, tenseness) is recorded.
(§6) The mouse is gently swung by the tail toward a horizontal 12 gauge wire tautly stretched 25 cm above the bench. After the mouse grasps the wire with its forepaws, its posterior end is held directly below the wire. A normal mouse grasps the wire with its forepaws and immediately lifts its hind limbs to the wire. Failure to grasp the wire with the forepaws in both trials constitutes loss of the grip reflex; failure to lift the hind limbs to grasp the wire with at least one hind paw within 5 seconds constitutes loss of the lift reflex.
(§7) The mouse is placed on the bar 10-20 cm horizontally and 9 cm vertically from a Galton whistle adjusted for 13 kc (5 mm on the whistle scale) and is subjected to several short bursts of sound.
(§8) An effective tranquilizer should induce little or no tremor response. […] Tremors include fine or coarse and intermittent or continuous tremors.

[2] = system: female white mice; experiment: animal or person; settings: Mus musculus, po, oral, mice
Procedure: as §1, §2, §3, §4, §5, §6, §7, §8

[3] = system: phenylquinone-induced writhing; experiment: Phenylquinone writhing test (analgesia); assay type: in vivo, mouse (Carworth CF1 S female); settings: Mus musculus
Description: This mouse test is predictive of analgesic response in humans. [E. Siegmund, R. Cadmus and G. Lee, Proc. Soc.
ED50 values were obtained graphically from the data.

[4] = read-out: Catatonia ED50, Table 1
[5] = read-out: Exploratory Loss Visual ED50, Table 1
[6] = read-out: Muscle Tone ED50, Table 1
[7] = read-out: Reflexes Grip ED50, Table 1
[8] = read-out: Reflexes Lift ED50, Table 1
[9] = read-out: Reflexes Pinna ED50, Table 1

Structure (SMILES)	LD50 at 24 h [1]	ED50 [2, 4]	ED50 [2, 5]	ED50 [2, 6]	ED50 [2, 7]	ED50 [2, 8]	ED50 ([3]; po, Table 1, mice)	ED50 [1]	ED50 [2, 9]	ED50 ([1]; Tremors ED50, Table 1, mice)	ED50 ([2]; read-out: Ptosis ED50, Table 1)	ED50 ([3]; Table 1, oral, mice)	ED50 ([2]; read-out: Catatonia ED50, Table III)	ED50 ([2]; read-out: Exploratory Loss Visual ED50, Table III)	ED50 ([2]; read-out: Muscle Tone ED50, Table III)	ED50 ([2]; read-out: Ptosis ED50, Table III)	ED50 ([2]; read-out: Reflexes Grip ED50, Table III)	ED50 ([2]; read-out: Reflexes Lift ED50, Table III)	ED50 ([2]; read-out: Reflexes Pinna ED50, Table III)
c1ccc2c(c1)[C@@H]1C[C@@]3(CN(CC4CCCO4)C[C@H]23)c2ccccc21 (stereo partly drawn) [Example 62, 2-(2-Tetrahydrofurylmethyl)-2,3,8,12b-tetrahydro-1H-3a,8-methanodibenzo[3,4:6,7]cyclohepta[1,2-c]pyrrole]	> 324 mg/kg	20 mg/kg	12 mg/kg	20 mg/kg	200 mg/kg	20 mg/kg	7 mg/kg												
c1ccc2c(c1)C1CC3(CN(CCCC4CCCC4)CC23)c2ccccc21 (stereo not drawn) [Example 24, 2-(3-Cyclopentylpropyl)-2,3,8,12b-tetrahydro-1H-3a,8-methanodibenzo[3,4:6,7]cyclohepta[1,2-c]pyrrole]	> 324 mg/kg	7 mg/kg	7 mg/kg		> 324 mg/kg	17 mg/kg	6 mg/kg	> 324 mg/kg	17 mg/kg										
CCN1CC2c3ccccc3C3CC2(C1)c1ccccc13 (stereo not drawn) [Example 12, 2-Ethyl-2,3,8,12b-tetrahydro-1H-3a,8-methanodibenzo[3,4:6,7]cyclohepta[1,2-c]pyrrole]	200 mg/kg	12 mg/kg	20 mg/kg	36 mg/kg	100 mg/kg	12 mg/kg			12 mg/kg	200 mg/kg	12 mg/kg	4.3 mg/kg							
c1ccc2c(c1)[C@@H]1C[C@@]3(CN(CC4CCCCCCC4)C[C@H]23)c2ccccc21 (relative stereo) [Example 34, 2-Cyclooctylmethyl-2,3,8,12b-tetrahydro-1H-3a,8-methanodibenzo[3,4:6,7]cyclohepta[1,2-c]pyrrole]	> 324 mg/kg	23 mg/kg	40 mg/kg	21 mg/kg	> 324 mg/kg	62 mg/kg	6 mg/kg	> 324 mg/kg	97 mg/kg		4 mg/kg								
c1coc(CN2C[C@@H]3c4ccccc4[C@@H]4C[C@@]3(C2)c2ccccc24)c1 (relative stereo) [Example 42, 2-(2-Furylmethyl)-2,3,8,12b-tetrahydro-1H-3a,8-methanodibenzo[3,4:6,7]cyclohepta[1,2-c]pyrrole]	300 mg/kg	36 mg/kg	60 mg/kg	20 mg/kg	> 324 mg/kg	200 mg/kg	26 mg/kg	> 324 mg/kg	60 mg/kg		20 mg/kg								
c1ccc2c(c1)[C@@H]1C[C@@]3(CN(C4CCCC4)C[C@H]23)c2ccccc21 (relative stereo) [Example 48, 2-Cyclopentyl-2,3,8,12b-tetrahydro-1H-3a,8-methanodibenzo[3,4:6,7]cyclohepta[1,2-c]pyrrole]	> 324 mg/kg	36 mg/kg	100 mg/kg	100 mg/kg	200 mg/kg	60 mg/kg			60 mg/kg	> 324 mg/kg	60 mg/kg	38 mg/kg							
Cl.Clc1ccc2c(c1)C1CN(CC3CCCCC3)CC13CC2c1ccccc13 (stereo not drawn) [Example 81, 11-Chloro-2-cyclohexylmethyl-2,3,8,12b-tetrahydro-1H-3a,8-methanodibenzo[3,4:6,7]cyclohepta[1,2-c]-pyrrole Hydrochloride]	> 324 mg/kg												19 mg/kg	17 mg/kg	12 mg/kg	< 3 mg/kg	> 324 mg/kg	36 mg/kg	11 mg/kg
